{"source": "paper PMC7997032", "about": "“Organic synthesis and anti-influenza A virus activity of cyclobakuchiols A, B, C, and D” (PLoS ONE, 2021)", "key": {"[1]": {"system": "A/PR/8/34 virus", "assay": "Influenza A viral growth assay (viral titer of culture media)", "assay_type": "cell-based, influenza A H1N1 virus", "design": "viral titer of culture media, individual replicate / viral titer of culture media, ave: unit not given here", "conditions": "A/PR/8/34 (PR8), 12.5uM, average of #1-3 exp (n=9)"}, "[2]": {"system": "A/WSN/33 virus", "assay": "Influenza A viral growth assay (viral titer of culture media)", "assay_type": "cell-based, influenza A H1N1 virus", "conditions": "A/WSN/33 (WSN), 12.5uM, average of #1-3 exp (n=9)"}, "[3]": {"system": "A/PR/8/34 virus", "assay": "RT-qPCR of viral mRNAs (NP, NS1, PA, PB1, PB2, M2) in infected MDCK cells", "assay_type": "cell-based, influenza A H1N1 virus"}, "[4]": {"system": "A/PR/8/34 virus", "assay_type": "cell-based", "conditions": "12.5 μM"}, "[5]": {"system": "canine interferon-β (Ifn-β)", "assay": "RT-qPCR of Ifn-β mRNA in MDCK cells with or without A/PR/8/34 virus", "assay_type": "cell-based", "conditions": "12.5uM, relative to virus - DMSO; for MDCK IFN-b mRNA, ave: ave of #1-3 exp; for MDCK IFN-b mRNA, individual replicates: replicates 1-3 of #1, #2, #3 exp, listed as Cyclobakuchiol A"}, "[6]": {"system": "NAD(P)H quinone oxidoreductase 1 (Nqo1)", "assay": "RT-qPCR of Nqo1 mRNA in MDCK cells with or without A/PR/8/34 virus", "assay_type": "cell-based, canine", "conditions": "for NQO1 Canis lupus mRNA, ave / NQO1 Canis lupus mRNA, individual replicates: 12.5uM, MDCK, relative to virus - DMSO; for NQO1 Canis lupus mRNA, ave: ave of #1-3 exp; for NQO1 Canis lupus mRNA, individual replicates: replicates 1-3 of #1, #2, #3 exp, listed as Cyclobakuchiol A"}, "[7]": {"system": "Nrf2", "assay": "Nrf2 reporter assay (dual luciferase system) in MDCK cells", "assay_type": "cell-based, canine", "method": "An Nrf2 reporter assay based on the dual luciferase system was performed as previously described. The plasmid pNQO1-ARE (antioxidant response element)-Fluc, provided by Yamamoto M., expressed a Firefly luciferase gene driven by Nrf2 activation, while the plasmid pRL-TK-Rluc vector (Promega, CA, USA) expressed a Renilla luciferase gene driven by the herpes simplex viral thymidine kinase promoter as an internal control. MDCK cells were seeded in a 24-well plate at 1 × 10^5 cells/well and transfected with pNQO1-ARE-luc (0.25 μg) and pRL-TK-Rluc (0.25 μg). At 24 h post-transfection, the cells were treated with 12.5 μM cyclobakuchiols A–D in the infection medium at 37°C under 5% CO2. DMSO (0.125%) and 12.5 μM 1 were used as negative and positive controls, respectively. Total RNA was extracted from the MDCK cell lysates after 24 h of incubation. The levels of Firefly and Renilla luciferase mRNAs were analyzed by RT-qPCR and normalized to that of β-actin mRNA."}, "[8]": {"system": "A/PR/8/34 virus", "assay": "Immunofluorescence staining of viral NP in influenza A virus-infected MDCK cells", "conditions": "for NP/DAPI (%) ave: average of 9 wells", "description": "MDCK cells were seeded on a 96-well plate at 1 × 10^4 cells/well. […] Each mixture was added to the cells at 37°C in the presence of 5% CO2. […] After influenza A viral infection for 24 h, the cells were fixed with 4% paraformaldehyde in phosphate-buffered saline (PBS) for 30 min at 4°C and subsequently permeabilized by the addition of 0.3% Triton X-100 for 20 min at 25°C. A mouse primary antibody was used to detect the NP of A/PR/8/34 or A/WSN/33 viruses (FluA-NP 4F1; SouthernBiotech, AL, USA). Alexa Fluor488-conjugated goat anti-mouse IgG (H + L) antibody (Thermo Fisher Scientific) was used as the secondary antibody. Cell nuclei were then stained using diamidino-2-phenylindole (DAPI) (Thermo Fisher Scientific). Wells were photographed using a fluorescence microscope (BIOREVO BZ-X700; Keyence, Osaka, Japan). The proportion of influenza A NP-positive cells per DAPI-positive cells was calculated based on measurements recorded using BZ-X Analyzer software (Keyence)."}, "[9]": {"system": "A/WSN/33 virus", "assay": "Immunofluorescence staining of viral NP in influenza A virus-infected MDCK cells", "conditions": "WSN"}, "[10]": {"conditions": "MDCK cells, PR8 virus, relative to DMSO (about 1), ave of #1-3 exp (9 values)"}, "[11]": {"conditions": "MDCK cells, PR8 virus, relative to DMSO, replicates 1-3 of #1, #2, #3 exp, listed as Cyclobakuchiol A"}, "[12]": {"conditions": "24h WB, average of 3 experiments"}, "[13]": {"conditions": "24h WB, single experiment, listed as cyclo A"}}, "note": "Values joined by “and” are separate entries in the source; they are usually repeats but may differ in a detail not shown here. Equal entries are not always repeated."}
{"molecule": "C=C[C@]1(C)CCC(C(=C)C)C(c2ccc(O)cc2)C1", "note": "(stereo in doubt) [cyclobakuchiol A]", "values": [{"measurement": "viral titer of culture media, ave", "setting": "[1]; 12h", "result": 31111.1}, {"measurement": "viral titer of culture media, ave", "setting": "[1]; 48h", "result": 28888.9}, {"measurement": "viral titer of culture media, ave", "setting": "[1]; 72h", "result": 20000}, {"measurement": "viral titer of culture media, ave", "setting": "[2]; 12h", "result": 10300}, {"measurement": "viral titer of culture media, ave", "setting": "[2]; 24h", "result": 22944444}, {"measurement": "viral titer of culture media, ave", "setting": "[2]; 48h", "result": 177111111}, {"measurement": "viral titer of culture media, ave", "setting": "[2]; 72h", "result": 106555556}, {"measurement": "reduction in the level of NP mRNA compared with 4 and 5", "setting": "[3]; 12.5 μM, 24 h, Fig 6A", "result": "significantly stronger"}, {"measurement": "reduction in the level of PB2 mRNA compared with 5", "setting": "[3]; 12.5 μM, 24 h, Fig 6E", "result": "significantly stronger"}, {"measurement": "PR8 NP gene expression qPCR, ave", "setting": "[3]; MDCK PR8, NP mRNA, relative (DMSO about 1), average of #1-3 exp (n=9)", "result": 0.01993}, {"measurement": "PR8 NP gene expression qPCR, individual replicate", "setting": "[3]; MDCK PR8, NP mRNA, relative (DMSO about 1), replicates of #1-3 exp, listed as Cyclobakuchiol A", "result": "0.004781 and 0.02173 and 0.01679 and 0.02307 and 0.03646 and 0.02695 and 0.03647 and 0.007215 and 0.005883"}, {"measurement": "PR8 NS1 gene expression qPCR, ave", "setting": "[3]; MDCK PR8, NS1 mRNA, relative (DMSO about 1), average of #1-3 exp (n=9)", "result": 0.01311}, {"measurement": "PR8 NS1 gene expression qPCR, individual replicate", "setting": "[3]; MDCK PR8, NS1 mRNA, relative (DMSO about 1), replicates of #1-3 exp, listed as Cyclobakuchiol A", "result": "0.006023 and 0.01703 and 0.01038 and 0.0146 and 0.02282 and 0.01557 and 0.01791 and 0.008546 and 0.005121"}, {"measurement": "PR8 PA gene expression qPCR, ave", "setting": "[3]; MDCK PR8, PA mRNA, relative (DMSO about 1), average of #1-3 exp (n=9)", "result": 0.01493}, {"measurement": "PR8 PA gene expression qPCR, individual replicate", "setting": "[3]; MDCK PR8, PA mRNA, relative (DMSO about 1), replicates of #1-3 exp, listed as Cyclobakuchiol A", "result": "0.007746 and 0.01438 and 0.00964 and 0.01502 and 0.02904 and 0.01721 and 0.0228 and 0.01256 and 0.005972"}, {"measurement": "PR8 M2 gene expression qPCR, ave", "setting": "[3]; [10]", "result": 0.01356}, {"measurement": "PR8 PB1 gene expression qPCR, ave", "setting": "[3]; [10]", "result": 0.01089}, {"measurement": "PR8 PB2 gene expression qPCR, ave", "setting": "[3]; [10]", "result": 0.01486}, {"measurement": "PR8 M2 gene expression qPCR, individual replicates", "setting": "[3]; [11]", "result": "0.006283 and 0.01574 and 0.01119 and 0.01541 and 0.02852 and 0.01303 and 0.01716 and 0.01044 and 0.004303"}, {"measurement": "PR8 PB1 gene expression qPCR, individual replicates", "setting": "[3]; [11]", "result": "0.005833 and 0.007225 and 0.006699 and 0.007236 and 0.02285 and 0.01622 and 0.02095 and 0.006264 and 0.00475"}, {"measurement": "PR8 PB2 gene expression qPCR, individual replicates", "setting": "[3]; [11]", "result": "0.006621 and 0.01468 and 0.01232 and 0.01635 and 0.03014 and 0.01618 and 0.02349 and 0.009706 and 0.004275"}, {"measurement": "NP/b-actin ave", "setting": "[4]; [12]", "result": 0.4278}, {"measurement": "NS1/b-actin ave", "setting": "[4]; [12]", "result": 0.4825}, {"measurement": "NP mean (western blot signal intensity, ImageJ)", "setting": "[4]; [13]", "result": "46.861 and 57.758 and 73.552"}, {"measurement": "NP/b-actin", "setting": "[4]; [13]", "result": "0.5523 and 0.2997 and 0.4315"}, {"measurement": "NS1/b-actin", "setting": "[4]; [13]", "result": "0.4154 and 0.4658 and 0.5663"}, {"measurement": "NS1 mean (western blot signal intensity, ImageJ)", "setting": "[4]; [13]", "result": "72.823 and 75.793 and 55.326"}, {"measurement": "expression level of NP protein compared with the 4 or 5 treatment groups", "setting": "[4]; 24 h post-infection, Fig 7C", "result": "significantly reduced"}, {"measurement": "MDCK IFN-b mRNA, ave", "setting": "[5]; virus +", "result": 3.338}, {"measurement": "MDCK IFN-b mRNA, individual replicates", "setting": "[5]; virus +", "result": "0.977 and 7.49 and 3.1238 and 7.575 and 1.945 and 2.0516 and 3.014 and 1.296 and 2.57"}, {"measurement": "MDCK IFN-b mRNA, ave", "setting": "[5]; virus -", "result": 4.43}, {"measurement": "MDCK IFN-b mRNA, individual replicates", "setting": "[5]; virus -", "result": "0.3432 and 9.774 and 14.2997 and 12.0611 and 0.902 and 0.6358 and 0.8443 and 0.4235 and 0.5869"}, {"measurement": "relative mRNA level of Nqo1 compared with 4- and 5-treated cells", "setting": "[6]", "result": "significantly higher"}, {"measurement": "NQO1 Canis lupus mRNA, ave", "setting": "[6]; virus + (PR8)", "result": 1.589}, {"measurement": "NQO1 Canis lupus mRNA, individual replicates", "setting": "[6]; virus + (PR8)", "result": "2.006 and 1.48 and 1.365 and 1.506 and 1.318 and 1.456 and 1.551 and 1.721 and 1.896"}, {"measurement": "NQO1 Canis lupus mRNA, ave", "setting": "[6]; virus -", "result": 1.2966}, {"measurement": "NQO1 Canis lupus mRNA, individual replicates", "setting": "[6]; virus -", "result": "1.091 and 1.486 and 1.24 and 1.353 and 1.444 and 1.092 and 1.099 and 1.4686 and 1.396"}, {"measurement": "relative mRNA level of Nqo1 compared with DMSO", "setting": "[6]; without A/PR/8/34 virus, 12.5 μM, 24 h", "result": "significantly upregulated"}, {"measurement": "Nrf2 activation (reporter assay) in contrast to DMSO", "setting": "[7]; 12.5 μM, 24 h, MDCK cells", "result": "induced"}, {"measurement": "pNQO1-ARE-Luc NRF2 reporter assay, ave", "setting": "[7]; 12.5uM, relative to DMSO trans+, ave of #1-3 exp", "result": 1.46}, {"measurement": "pNQO1-ARE-Luc NRF2 reporter assay, individual replicates", "setting": "[7]; 12.5uM, relative to DMSO trans+, two values each of #1, #2, #3 exp, listed as Cyclobakuchiol A", "result": "1.665 and 1.021 and 1.596 and 1.77 and 1.598 and 1.113"}, {"measurement": "percentage of influenza A NP-positive cells relative to DMSO", "setting": "[8]; A/PR/8/34, 3.1 μM, 24 h, Fig 4B", "result": "significantly reduced"}, {"measurement": "NP/DAPI (%) ave", "setting": "[8]; A/PR/8/34, 3.13 uM", "result": 4.608, "unit": "%"}, {"measurement": "NP/DAPI (%) ave", "setting": "[8]; A/PR/8/34, 6.25 uM", "result": 1.65, "unit": "%"}, {"measurement": "NP/DAPI (%) ave", "setting": "[8]; A/PR/8/34, 12.5 uM", "result": 1.121, "unit": "%"}, {"measurement": "NP (NP-positive cell count)", "setting": "[8]; A/PR/8/34, 12.5 uM, single well, listed as Cyclobaku. A", "result": "4 and 2 and 3"}, {"measurement": "NP/DAPI (%) ave", "setting": "[8]; A/PR/8/34, 25 uM", "result": 0.8303, "unit": "%"}, {"measurement": "NP/DAPI (%)", "setting": "[8]; A/PR/8/34, 25 uM, single well, listed as Cyclobaku. A", "result": "2.804% and 0.7843% and 0.5666% and 0.5181% and 1.085% and 0.489% and 0.3145% and 0.3937%"}, {"measurement": "IC50", "setting": "[8]; Influenza A virus, PR/8, MDCK, read-out: half maximal (50%) inhibitory concentration (IC50)", "result": "1700 ± 800", "unit": "nM"}, {"measurement": "NP/DAPI (%) ave", "setting": "[9]; 3.13uM, ave of 9 values (3 exp)", "result": 33.269, "unit": "%"}, {"measurement": "NP/DAPI (%) ave", "setting": "[9]; 6.25uM, ave of 9 values (3 exp)", "result": 28.3611, "unit": "%"}, {"measurement": "NP/DAPI (%) ave", "setting": "[9]; 12.5uM, ave of 9 values (3 exp)", "result": 27.0591, "unit": "%"}, {"measurement": "NP/DAPI (%) ave", "setting": "[9]; 25uM, ave of 9 values (3 exp)", "result": 29.2459, "unit": "%"}, {"measurement": "NP/DAPI (%) ave", "setting": "[9]; ave summary, 3.13%", "result": 33.269, "unit": "%"}, {"measurement": "NP/DAPI (%) ave", "setting": "[9]; ave summary, 6.25%", "result": 28.3611, "unit": "%"}, {"measurement": "NP/DAPI (%) ave", "setting": "[9]; ave summary, 12.50%", "result": 27.0591, "unit": "%"}, {"measurement": "NP/DAPI (%) ave", "setting": "[9]; ave summary, 25%", "result": 29.2459, "unit": "%"}]}
